Measured values from patent US12171807B2, “Use of bremelanotide in patients with controlled hypertension” (Cosette Pharmaceuticals, Inc., priority 2020, dated 2024).

How the values were obtained:
[1] = Repeat dosing ambulatory blood pressure monitoring study, bremelanotide 1.75 mg SC daily for 8 days then randomized withdrawal (days 9 to 16); format: in vivo, human; conditions: for mean change (95% CI) in daytime systolic BP: day 8; for Difference from Baseline, daytime diastolic BP at Day 8 / Difference from Baseline, daytime systolic BP at Day 8: BP in mmHg
Procedure: The study focusing on the impact of repeat dosing on blood pressure included 127 women treated with bremelanotide 1.75 mg administered subcutaneously (SC) daily for 8 consecutive days, followed by a randomized withdrawal period of 8 additional consecutive days (days 9 to 16) in which study participants were randomized to either remain on bremelanotide 1.75 mg SC daily or placebo SC daily. Ambulatory blood pressure monitoring was performed on baseline day −1 (single blind placebo), day 8 and on day 16. After 8 days of dosing of bremelanotide 1.75 mg SC, the mean changes from baseline in the 24 hour systolic and diastolic BPs (FIG. 1) were below 2 mmHg. Importantly, the upper bound of the 95% confidence interval for the mean changes in daytime systolic BP (a pre-specified outcome) was below 4 mmHg. These increases in BP were accompanied by small to no reductions in the heart rate of 1 beat/minute or less.
There were 122 (96%) study participants who completed the randomized withdrawal portion of the study. […] In those randomized to placebo, returns toward baseline BP values were observed (generally a 2 mmHg decline from day 8).
The patient population was comprised of normotensive premenopausal women and included 2 women with a medical history of hypertension on antihypertensive therapy. One subject was being treated for hypertension with Lisinopril. The other subject was being treated for hypertension with chlorthalidone. Both subjects received all 16 injections; 8 doses in the Open-Label Period and 8 doses in the Randomized Withdrawal Period (one subject was randomized to each treatment group). […] The mean changes from Baseline (Day −1) at Day 8 during daytime in these two subjects are shown in the below table. Changes in daytime HR at Day 8 were −1.7 bpm for the subject and −1.4 bpm for the subject.
In order to better understand the potential effects of the drug in patients with higher BP values at baseline, an exploratory analysis was performed from the trial evaluating those women whose baseline BP was in the 90th percentile (pre-dose systolic BP >124 mmHg) to determine if the pressor response of bremelanotide differed from those study participants whose baseline BP was below the 90th percentile (pre-dose systolic BP <124 mmHg). At day 8, mean changes (95% CI) from the daytime systolic BP in those study participants in the 90th percentile or greater (n=17) at baseline was −0.16 (−2.06, 1.75) mmHg versus 2.03 (1.70, 2.36) mmHg in those whose baseline systolic BP was below the 90th percentile.

[2] = Drug-drug interaction study with antihypertensive agents, single dose bremelanotide 1.75 mg SC vs placebo, ambulatory BP monitoring; format: in vivo, human
Procedure: An additional study evaluated the effects of single doses of bremelanotide 1.75 mg SC and placebo SC in normotensive, healthy women pre-treated with 5 different classes of antihypertensive drugs in a double-blind cross-over design using ambulatory BP monitoring. The washout period between randomized, blinded treatments was 48 hours. This study included both premenopausal and postmenopausal women. There were 15 healthy […] subjects in each panel of the antihypertensive medications with the exception of the beta-blocker metoprolol (n=17). Blood pressures at baseline in the various panels were low normal (24 hour systolic BPs ranging from 109 to 114 mmHg and 24 hour diastolic BPs ranging from 67 to 72 mmHg (FIG. 2). The placebo-corrected changes from baseline in the 24-hour systolic BPs on bremelanotide 1.75 mg SC ranged from 1.7 mmHg on amlodipine to 3.8 mmHg on hydrochlorothiazide; changes in the 24 hour diastolic BPs ranged from 1.8 mmHg on metoprolol to 2.8 mmHg on lisinopril. In 4 of the 5 classes of antihypertensive medications, nighttime BP changes were substantially lower than daytime BP changes. In study participants pre-treated with hydrochlorothiazide 12.5 mg daily, nighttime BPs increased by 5.5/4.5 mmHg. In review of individual subjects in the HCTZ panel, it was noted that 4 study participants had large reductions in nighttime SBP (10-15 mmHg) on placebo while on bremelanotide 4 study participants had large increases in nighttime SBP (10-15 mmHg).
1. […] There was an elevation in nighttime BP in patients pre-treated with hydrochlorothiazide 12.5 mg, which has no apparent pharmacologic basis and is like the result of random variability in both the bremelanotide and placebo sub-groups. As noted, there was no similar finding in the 4 other antihypertensive panels.

[3] = Blood pressure by time post-dose, Bremelanotide 2 mg SC vs placebo; format: in vivo; conditions: 2 mg SC (n = 30)
[4] = Pressor effect in obese women receiving supratherapeutic doses (6.5 mg daily) for 15 days; format: in vivo, human; conditions: 15 days at 6.5 mg daily
[5] = Repeat dosing ambulatory blood pressure monitoring study, bremelanotide 1.75 mg SC daily for 8 days then randomized withdrawal (days 9 to 16); format: in vivo, human; conditions: after 16 days of dosing of bremelanotide 1.75 mg SC
[6] = repeat doses of BMT; review of IND 64119; cited from earlier work
[7] = 2 women with history of hypertension on antihypertensive therapy
[8] = 61 women, 1.75 mg SC for 16 consecutive days
[9] = following 8 consecutive days of dosing
[10] = subject treated with Lisinopril
[11] = subject treated with chlorthalidone
[12] = subject with hypertension treated with Lisinopril, baseline (Day −1) 105/70 mmHg
[13] = subject with hypertension treated with chlorthalidone, baseline (Day −1) 121/81 mmHg
[14] = single dose 1.75 mg SC, pre-treated with hydrochlorothiazide 12.5 mg daily

CCCC[C@H](NC(C)=O)C(=O)N[C@H]1CC(=O)NCCCC[C@@H](C(=O)O)NC(=O)[C@H](Cc2c[nH]c3ccccc23)NC(=O)[C@H](CCCN=C(N)N)NC(=O)[C@@H](Cc2ccccc2)NC(=O)[C@H](Cc2cnc[nH]2)NC1=O [bremelanotide, Ac-Nle-cyclo(-Asp-His-D-Phe-Arg-Trp-Lys)-OH]
outlier analysis: systolic BP elevation of >150 mmHg or diastolic BP elevation >95 mmHg lasting for 120 minutes ([1]; 1.75 mg SC daily): 1 (0.8%) study participants (%)
outlier analysis: systolic BP elevation of >160 mmHg or diastolic BP elevation of >100 mmHg lasting more than 90 minutes ([1]; 1.75 mg SC daily): 2 (1.6%) study participants (%)
abnormalities on ECG [1, 7]: neither subject had clinically significant abnormalities on ECG
cardiovascular TEAE [1, 7]: No cardiovascular TEAE were reported
intensity of TEAE [1, 7]: all were mild in intensity
increases in 24 hour BP from placebo baseline (Day −1) [1, 8]: < 1 mmHg
increases in average daytime BPs from placebo baseline (Day −1) [1, 8]: < 1.5 mmHg
cumulative effect on daytime BP or heart rate compared to baseline or day 8 ([1]; 16 days of consecutive administration): no cumulative increases in daytime BP or reductions in heart rate
reductions in the heart rate ([1]; after 8 days of 1.75 mg SC daily): ≤ 1 beat/minute
mean change from baseline in 24 hour diastolic BP ([1]; after 8 days of 1.75 mg SC daily, 127 women): below 2 mmHg
mean change (95% CI) in daytime systolic BP ([1]; baseline BP in the 90th percentile or greater (pre-dose systolic BP >124 mmHg), n=17): −0.16 (−2.06, 1.75) mmHg
mean change (95% CI) in daytime systolic BP ([1]; baseline systolic BP below the 90th percentile): 2.03 (1.70, 2.36) mmHg
time of peak effects on BP post-dose [1, 9]: 3 to 5 h
time post-dose by which BP effect attenuated [1, 9]: ≤ 8 h
nighttime BP ([1]; following 8 days of consecutive therapy): no increases in nighttime BP
complications or symptoms associated with transient stage 2 hypertension levels ([1]; outlier subjects): In none of these subjects were there complications or symptoms
Change in daytime HR at Day 8 [1, 10]: −1.7 bpm
Difference from Baseline, daytime diastolic BP at Day 8 [1, 10]: +4 diastolic
Difference from Baseline, daytime systolic BP at Day 8 [1, 10]: +3 systolic;
Change in daytime HR at Day 8 [1, 11]: −1.4 bpm
Difference from Baseline, daytime diastolic BP at Day 8 [1, 11]: −4 diastolic
Difference from Baseline, daytime systolic BP at Day 8 [1, 11]: −9 systolic;
Day 8 Daytime BP, diastolic [1, 12]: 74 mmHg
Day 8 Daytime BP, systolic [1, 12]: 108 mmHg
Day 8 Daytime BP, diastolic [1, 13]: 77 mmHg
Day 8 Daytime BP, systolic [1, 13]: 112 mmHg
large increases in nighttime SBP in individual subjects ([2]; 4 study participants of the HCTZ panel on bremelanotide): 10-15 mmHg
induction of hypertension by BP increases ([2]; single dose 1.75 mg SC, healthy women on antihypertensive therapy at steady-state): did not induce hypertension
nighttime BP increase, diastolic [2, 14]: 4.5 mmHg
nighttime BP increase, systolic [2, 14]: 5.5 mmHg
placebo-corrected change from baseline in 24-hour systolic BP ([2]; single dose 1.75 mg SC, women pre-treated with amlodipine): 1.7 mmHg
placebo-corrected change from baseline in 24-hour systolic BP ([2]; single dose 1.75 mg SC, women pre-treated with hydrochlorothiazide): 3.8 mmHg
placebo-corrected change from baseline in 24 hour diastolic BP ([2]; single dose 1.75 mg SC, women pre-treated with lisinopril): 2.8 mmHg
placebo-corrected change from baseline in 24 hour diastolic BP ([2]; single dose 1.75 mg SC, women pre-treated with metoprolol): 1.8 mmHg
Diastolic Blood Pressure ([3]; Hour 1 post-dose): 1.00 (−3.13, 5.13)
Systolic Blood Pressure ([3]; Hour 1 post-dose): 2.36 (−2.15, 6.87)
Diastolic Blood Pressure ([3]; Hour 2 post-dose): 1.03 (−2.96, 5.02)
Systolic Blood Pressure ([3]; Hour 2 post-dose): 0.01 (−4.18, 4.20)
Diastolic Blood Pressure ([3]; Hour 3 post-dose): 1.26 (−2.74, 5.26)
Systolic Blood Pressure ([3]; Hour 3 post-dose): 0.84 (−3.55, 5.23)
Diastolic Blood Pressure ([3]; Hour 4 post-dose): −1.38 (−6.00, 3.24)
Systolic Blood Pressure ([3]; Hour 4 post-dose): 0.38 (−3.13, 3.90)
cumulative effect on blood pressure or heart rate [4]: no evidence for a cumulative effect on blood pressure or heart rate
daytime systolic BP change by baseline BP percentile, trend [5]: Trends were similar
duration of blood pressure effect [6]: at least four hours
increases in systolic and diastolic blood pressures [6]: approximately 4 mmHg
